Measurements published in patent US20210330611A1, “THERAPY FOR NEUROLOGICAL DISEASES/DISORDERS” (priority 2020, published 2021).
Structures can show the parent of a compound that is named as a salt. Where two headings read alike, the source gives them in different places.

Key:
[1] = tested on: fibrin-induced microglia activation; experiment: Image-based assay of fibrin-induced microglia activation (HTS and dose response); format: cell-based, rat; details: for inhibition at 10 µM: Rattus norvegicus, Microglia, read-out: Fibrin % inhibition
[2] = tested on: LPS-induced microglia activation; experiment: Image-based assay of LPS-induced microglia activation (HTS and dose response); format: cell-based, rat; details: for inhibition at 10 µM: Rattus norvegicus, Microglia, read-out: LPS % inhibition
[3] = tested on: fibrin- and LPS-induced microglia activation; experiment: cells; format: cell-based, rat
primary rat microglia [4] = experiment: Cell toxicity (dead cells, size <150 μm2) in LPS assay
primary rat microglia [5] = experiment: Cell toxicity (dead cells, size <150 μm2) in coated fibrin (cFib) assay;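 for Fibrin % cell toxicity: share of dead cells sized under 150 µm2 at 10 µM in fibrin-stimulated microglia HTS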
[6] = quadrant by fibrin and LPS inhibition in HTS of 1907 compounds
[7] = primary microglia HTS, fibrin stimulation, increased cell size (>800 μm^2) as marker of activation
[8] = primary microglia HTS, LPS stimulation, increased cell size (>800 μm^2) as marker of activation
[9] = primary microglia HTS, LPS stimulation, decreased size (<150 μm^2) as marker of toxicity
[10] = primary microglia HTS, fibrin stimulation, decreased size (<150 μm^2) as marker of toxicity
[11] = primary microglia HTS, 10 μM, fibrin-stimulated, cell size >800 μm^2 as marker of activation
[12] = primary microglia HTS, 10 μM, LPS-stimulated, cell size >800 μm^2 as marker of activation
[13] = HTS of 1907 compounds, quadrant by fibrin and LPS inhibition
[14] = primary microglia HTS, 10 μM, LPS assay, cell size <150 μm^2 as marker of toxicity
[15] = primary microglia HTS, 10 μM, fibrin assay, cell size <150 μm^2 as marker of toxicity
[16] = 48 h, primary microglia HTS, LPS stimulation, increased cell size (>800 μm^2) as marker of activation
[17] = primary HTS, 10 μM, fibrin-stimulated primary microglia
[18] = primary HTS, 10 μM, LPS-stimulated primary microglia
[19] = primary HTS, 10 μM, LPS assay, dead cells size <150 μm2
[20] = primary HTS, 10 μM, fibrin assay, dead cells size <150 μm2

SMILES: O=C(O)c1ccc(S(=O)(=O)N(Cl)Cl)cc1 [Halazone]
- inhibition at 10 µM ([1]; primary microglia HTS, fibrin stimulation, activation = cell size >800 μm2): -13%
- inhibition at 10 µM ([2]; 48 h, primary microglia HTS, LPS stimulation, activation = cell size >800 μm2): 19%
- Quadrant (FIG. 5b) [3, 6]: Q4
- LPS % cell toxicity (primary rat microglia [4]; primary microglia HTS, LPS stimulation, toxicity = cell size <150 μm2): 0%
- Fibrin % cell toxicity (primary rat microglia [5]; primary microglia HTS, fibrin stimulation, toxicity = cell size <150 μm2): 0%

SMILES: CSc1ccc2c(c1)C(N1CCN(C)CC1)Cc1ccccc1S2 (centres unmarked)
- Fibrin % inhibition [1, 7]: 11%
- LPS % inhibition [2, 8]: −5%
- Quadrant (FIG. 5b) [3, 6]: Q4
- LPS % cell toxicity (primary rat microglia [4]; [9]): 0%
- Fibrin % cell toxicity (primary rat microglia [5]; [10]): 1%

SMILES: COc1ccc(C(=O)c2ccc(C)cc2)c(O)c1 [Mexeneone]
- Fibrin % inhibition [1, 7]: −8%
- LPS % inhibition [2, 8]: 9%
- Quadrant (FIG. 5b) [3, 6]: Q4
- LPS % cell toxicity (primary rat microglia [4]; [9]): 0%
- Fibrin % cell toxicity (primary rat microglia [5]; [10]): 1%

SMILES: CC(=O)O[C@H]1C[C@@H]2CC[C@@H]3[C@H](CC[C@@]4(C)[C@H]3C[C@H]([N+]3(C)CCCCC3)[C@@H]4OC(C)=O)[C@@]2(C)C[C@@H]1N1CCCCC1 [Vecuronium Bromide]
- Fibrin % inhibition [1, 11]: 7%
- LPS % inhibition [2, 12]: 23%
- Quadrant (FIG. 5b) [3, 13]: Q4
- LPS % cell toxicity (primary rat microglia [4]; [14]): 0%
- Fibrin % cell toxicity (primary rat microglia [5]; [15]): 1%

SMILES: CCC(Cc1c(I)cc(I)c(N)c1I)C(=O)O (centres unmarked) [Iopanic acid, reference compound]
- Fibrin Selectivity [1]: 4
- Fibrin Selectivity (LOG10) [1]: 0.58
- IC50 ([1]; Table 1, dose response 0.001-20 μM, triplicates, primary rat microglia, 48 h, read-out: Fibrin IC50): 5 µM
- IC50 ([1]; Table 3, read-out: Fibrin IC50 (uM) (Suppl. Table 7)): 5 µM
- IC50 ([1]; dose response, fibrin-induced microglia activation, read-out: Fibrin IC50): 5 µM
- Fibrin % inhibition [1, 7]: 51%
- IC50 ([2]; Table 1, dose response 0.001-20 μM, triplicates, primary rat microglia, 48 h, read-out: LPS IC50): > 20 µM
- IC50 ([2]; Table 3, read-out: LPS IC50 (uM) (Suppl. Table 7)): > 20 µM
- IC50 ([2]; dose response, LPS-induced microglia activation, read-out: LPS IC50): > 20 µM
- LPS % inhibition [2, 8]: 35%
- Hit ([3]; HTS hit classification): HIT (Hits were defined as molecules that exhibited greater than 50% inhibition of either fibrin or LPS activation)
- Quadrant (FIG. 5b) ([3]; Table 1, screen at 10 μM): Q3
- Cherry-picked Hit (Suppl. Table 7) ([3]; Table 3): HIT (Hits were defined as molecules that exhibited greater than 50% inhibition of either fibrin or LPS activation)
- Quadrant (FIG. 5b) ([3]; Table 3, screen at 10 μM): Q3
- Quadrant (FIG. 5b) [3, 6]: Q3
- LPS % cell toxicity (primary rat microglia [4]; [9]): 0%
- IC50 (primary rat microglia [4]; read-out: Cell Toxicity IC50 (uM) [LPS assay], Table 3): > 20 µM
- Fibrin % cell toxicity (primary rat microglia [5]; [10]): 1%
- IC50 (primary rat microglia [5]; read-out: Cell Toxicity IC50 (uM) [cFib assay], Table 3): > 20 µM

SMILES: Cc1cccc(Nc2ccncc2S(=O)(=O)NC(=O)NC(C)C)c1 [Torasemide]
- inhibition at 10 µM [1, 11]: -29%
- inhibition at 10 µM [2, 12]: 7%
- Quadrant (FIG. 5b) [3, 13]: Q4
- LPS % cell toxicity (primary rat microglia [4]; [14]): 0%
- Fibrin % cell toxicity (primary rat microglia [5]; [15]): 1%

SMILES: CC(=O)OC(C)C[N+](C)(C)C (centres unmarked) [Methacholine]
- inhibition at 10 µM [1, 7]: 2%
- inhibition at 10 µM [2, 16]: 9%
- Quadrant (FIG. 5b) [3, 6]: Q4
- LPS % cell toxicity (primary rat microglia [4]; [9]): 0%
- Fibrin % cell toxicity (primary rat microglia [5]; [10]): 1%

SMILES: O=C(O)C1=C(CSc2nnnn2CS(=O)(=O)O)CS[C@@H]2[C@H](NC(=O)[C@H](O)c3ccccc3)C(=O)N12 [Cefonicid Sodium]
- inhibition at 10 µM [1, 17]: -11%
- inhibition at 10 µM [2, 18]: 15%
- Quadrant (FIG. 5b) ([3]; primary HTS, 10 μM): Q4
- LPS % cell toxicity (primary rat microglia [4]; [19]): 0%
- Fibrin % cell toxicity (primary rat microglia [5]; [20]): 0%

SMILES: C[N+]12CCC(CC1)C(OC(=O)C(O)(c1ccccc1)c1ccccc1)C2 (centres unmarked) [Clidinium Bromide]
- inhibition at 10 µM [1, 17]: -20%
- inhibition at 10 µM [2, 18]: 9%
- Quadrant (FIG. 5b) ([3]; primary HTS, 10 μM): Q4
- LPS % cell toxicity (primary rat microglia [4]; [19]): 0%
- Fibrin % cell toxicity (primary rat microglia [5]; [20]): 1%

SMILES: Cc1onc(-c2ccccc2Cl)c1C(=O)N[C@@H]1C(=O)N2[C@@H]1SC(C)(C)[C@@H]2C(=O)O [Cloxacillin]
- inhibition at 10 µM [1, 17]: -13%
- inhibition at 10 µM [2, 18]: 17%
- Quadrant (FIG. 5b) ([3]; primary HTS, 10 μM): Q4
- LPS % cell toxicity (primary rat microglia [4]; [19]): 1%
- Fibrin % cell toxicity (primary rat microglia [5]; [20]): 1%

SMILES: COc1ccc(C(CN(C)C)C2(O)CCCCC2)cc1 (centres unmarked) [Venlafaxine, Venlafaxine Hydrochloride]
- Fibrin % inhibition [1, 11]: 3%
- LPS % inhibition [2, 12]: 20%
- Quadrant (FIG. 5b) [3, 13]: Q4
- LPS % cell toxicity (primary rat microglia [4]; [14]): 0%
- Fibrin % cell toxicity (primary rat microglia [5]; [15]): 1%

SMILES: COC(=O)[C@@H]1[C@H]2C[C@H]3c4[nH]c5ccccc5c4CCN3C[C@@H]2CC[C@@H]1O [Yohimbine]
- Fibrin % inhibition [1, 11]: 4%
- LPS % inhibition [2, 12]: −17%
- Quadrant (FIG. 5b) [3, 13]: Q4
- LPS % cell toxicity (primary rat microglia [4]; [14]): 0%
- Fibrin % cell toxicity (primary rat microglia [5]; [15]): 1%

SMILES: CC(C)(C)NCC(O)c1ccccc1Cl.Cl (centres unmarked) [Tulobuterol, Tulobuterol Hydrochloride]
- Fibrin % inhibition [1, 11]: 21%
- LPS % inhibition [2, 12]: 36%
- Quadrant (FIG. 5b) [3, 13]: Q4
- LPS % cell toxicity (primary rat microglia [4]; [14]): 0%
- Fibrin % cell toxicity (primary rat microglia [5]; [15]): 0%

SMILES: Cc1ccc(Nc2c(F)cccc2Cl)c(CC(=O)O)c1 [Lumiracoxib]
- inhibition at 10 µM [1, 7]: 14%
- inhibition at 10 µM [2, 16]: 18%
- Quadrant (FIG. 5b) [3, 6]: Q4
- LPS % cell toxicity (primary rat microglia [4]; [9]): 0%
- Fibrin % cell toxicity (primary rat microglia [5]; [10]): 1%

SMILES: COc1cc(NS(=O)(=O)c2ccc(N)cc2)nc(OC)n1 [Sulfadimethoxine]
- inhibition at 10 µM [1, 11]: 42%
- inhibition at 10 µM [2, 12]: 13%
- Quadrant (FIG. 5b) [3, 13]: Q4
- LPS % cell toxicity (primary rat microglia [4]; [14]): 0%
- Fibrin % cell toxicity (primary rat microglia [5]; [15]): 1%

SMILES: COc1cccc(OC)c1C(=O)N[C@@H]1C(=O)N2[C@@H]1SC(C)(C)[C@@H]2C(=O)O [Meticillin]
- inhibition at 10 µM [1, 7]: -19%
- inhibition at 10 µM [2, 16]: 18%
- Quadrant (FIG. 5b) [3, 6]: Q4
- LPS % cell toxicity (primary rat microglia [4]; [9]): 0%
- Fibrin % cell toxicity (primary rat microglia [5]; [10]): 0%

SMILES: O=C(N/N=C/c1ccc([N+](=O)[O-])o1)c1cc([N+](=O)[O-])cc([N+](=O)[O-])c1O [Nifursol]
- inhibition at 10 µM [1, 7]: 47%
- inhibition at 10 µM [2, 16]: 20%
- Quadrant (FIG. 5b) [3, 6]: Q4
- LPS % cell toxicity (primary rat microglia [4]; [9]): 0%
- Fibrin % cell toxicity (primary rat microglia [5]; [10]): 1%

SMILES: O=C(O)c1cc(/N=N/c2ccc(O)c(C(=O)O)c2)ccc1O [Olsalazine]
- inhibition at 10 µM [1, 7]: -36%
- inhibition at 10 µM [2, 16]: 22%
- Quadrant (FIG. 5b) [3, 6]: Q4
- LPS % cell toxicity (primary rat microglia [4]; [9]): 1%
- Fibrin % cell toxicity (primary rat microglia [5]; [10]): 1%

SMILES: CN(Cc1cc(Br)cc(Br)c1N)C1CCCCC1 [Bromhexine]
- inhibition at 10 µM [1, 17]: -16%
- inhibition at 10 µM [2, 18]: 11%
- Quadrant (FIG. 5b) ([3]; primary HTS, 10 μM): Q4
- LPS % cell toxicity (primary rat microglia [4]; [19]): 0%
- Fibrin % cell toxicity (primary rat microglia [5]; [20]): 0%

SMILES: COc1ccc(NS(=O)(=O)c2ccc(N)cc2)nn1 [Sulfamethoxypyridazine]
- inhibition at 10 µM [1, 11]: 21%
- inhibition at 10 µM [2, 12]: 15%
- Quadrant (FIG. 5b) [3, 13]: Q4
- LPS % cell toxicity (primary rat microglia [4]; [14]): 0%
- Fibrin % cell toxicity (primary rat microglia [5]; [15]): 1%

SMILES: CN(C(=O)CN(CCO)CC(=O)N(C)C(C)(C)Cc1ccccc1)C(C)(C)Cc1ccccc1 [Oxethazaine]
- inhibition at 10 µM [1, 7]: 25%
- inhibition at 10 µM [2, 16]: 42%
- Quadrant (FIG. 5b) [3, 6]: Q4
- LPS % cell toxicity (primary rat microglia [4]; [9]): 0%
- Fibrin % cell toxicity (primary rat microglia [5]; [10]): 1%
